{"source": "patent US12479847B2", "about": "(DANA-FARBER CANCER INSTITUTE, INC., priority 2019, dated 2025)", "test_in_all_cases": "KINOMEscan (ScanMAX) kinase profiling", "assay_type_in_all_cases": "binding", "key": {"panel of 468 kinases [1]": {"biological_target": "T1, panel of 468 kinases (Homo sapiens, UniProt P08581)", "T1 construct": "purchased KINOMEscan (ScanMAX) service", "T1 sequence (P08581 25-1390)": "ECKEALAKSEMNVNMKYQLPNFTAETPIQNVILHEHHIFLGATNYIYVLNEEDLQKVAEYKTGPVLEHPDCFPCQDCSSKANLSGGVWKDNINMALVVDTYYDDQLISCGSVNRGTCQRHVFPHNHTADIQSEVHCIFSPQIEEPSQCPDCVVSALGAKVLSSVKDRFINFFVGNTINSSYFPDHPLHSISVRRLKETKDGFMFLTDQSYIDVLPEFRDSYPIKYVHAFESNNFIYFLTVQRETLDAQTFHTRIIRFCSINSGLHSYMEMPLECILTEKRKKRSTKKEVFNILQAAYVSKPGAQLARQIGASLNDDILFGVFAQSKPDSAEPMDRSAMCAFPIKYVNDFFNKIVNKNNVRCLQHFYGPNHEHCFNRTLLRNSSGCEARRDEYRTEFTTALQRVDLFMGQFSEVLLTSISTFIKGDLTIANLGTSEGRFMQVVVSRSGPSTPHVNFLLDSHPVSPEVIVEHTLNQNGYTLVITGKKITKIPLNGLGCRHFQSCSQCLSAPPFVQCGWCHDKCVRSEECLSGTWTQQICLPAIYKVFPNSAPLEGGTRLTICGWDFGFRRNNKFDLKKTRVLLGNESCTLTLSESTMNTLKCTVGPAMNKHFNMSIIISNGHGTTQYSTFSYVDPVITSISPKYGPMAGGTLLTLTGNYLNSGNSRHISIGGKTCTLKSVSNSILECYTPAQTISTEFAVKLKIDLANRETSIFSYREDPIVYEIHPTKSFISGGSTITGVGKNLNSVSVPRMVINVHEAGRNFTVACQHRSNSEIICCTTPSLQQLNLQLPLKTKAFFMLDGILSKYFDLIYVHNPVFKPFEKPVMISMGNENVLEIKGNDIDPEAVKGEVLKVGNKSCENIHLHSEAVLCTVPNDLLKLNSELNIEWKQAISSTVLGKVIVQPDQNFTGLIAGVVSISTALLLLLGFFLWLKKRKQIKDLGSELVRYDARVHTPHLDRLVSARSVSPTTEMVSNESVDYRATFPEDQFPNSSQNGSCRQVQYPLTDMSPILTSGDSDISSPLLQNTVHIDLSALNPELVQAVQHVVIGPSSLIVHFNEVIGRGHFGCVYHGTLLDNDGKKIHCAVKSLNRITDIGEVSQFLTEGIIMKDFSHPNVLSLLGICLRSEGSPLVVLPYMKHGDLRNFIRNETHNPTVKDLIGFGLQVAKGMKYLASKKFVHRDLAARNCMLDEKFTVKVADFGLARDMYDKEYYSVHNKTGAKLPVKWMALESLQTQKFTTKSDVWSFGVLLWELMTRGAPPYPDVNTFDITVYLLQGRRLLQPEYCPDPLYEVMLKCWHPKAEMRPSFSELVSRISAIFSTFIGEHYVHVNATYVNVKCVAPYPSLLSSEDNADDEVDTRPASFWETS", "settings": "MET; 1 μM; read-out: % control"}, "panel of 468 kinases [2]": {"biological_target": "T2, panel of 468 kinases (Homo sapiens, UniProt Q08345)", "T2 construct": "purchased KINOMEscan (ScanMAX) service", "T2 sequence (Q08345 19-913)": "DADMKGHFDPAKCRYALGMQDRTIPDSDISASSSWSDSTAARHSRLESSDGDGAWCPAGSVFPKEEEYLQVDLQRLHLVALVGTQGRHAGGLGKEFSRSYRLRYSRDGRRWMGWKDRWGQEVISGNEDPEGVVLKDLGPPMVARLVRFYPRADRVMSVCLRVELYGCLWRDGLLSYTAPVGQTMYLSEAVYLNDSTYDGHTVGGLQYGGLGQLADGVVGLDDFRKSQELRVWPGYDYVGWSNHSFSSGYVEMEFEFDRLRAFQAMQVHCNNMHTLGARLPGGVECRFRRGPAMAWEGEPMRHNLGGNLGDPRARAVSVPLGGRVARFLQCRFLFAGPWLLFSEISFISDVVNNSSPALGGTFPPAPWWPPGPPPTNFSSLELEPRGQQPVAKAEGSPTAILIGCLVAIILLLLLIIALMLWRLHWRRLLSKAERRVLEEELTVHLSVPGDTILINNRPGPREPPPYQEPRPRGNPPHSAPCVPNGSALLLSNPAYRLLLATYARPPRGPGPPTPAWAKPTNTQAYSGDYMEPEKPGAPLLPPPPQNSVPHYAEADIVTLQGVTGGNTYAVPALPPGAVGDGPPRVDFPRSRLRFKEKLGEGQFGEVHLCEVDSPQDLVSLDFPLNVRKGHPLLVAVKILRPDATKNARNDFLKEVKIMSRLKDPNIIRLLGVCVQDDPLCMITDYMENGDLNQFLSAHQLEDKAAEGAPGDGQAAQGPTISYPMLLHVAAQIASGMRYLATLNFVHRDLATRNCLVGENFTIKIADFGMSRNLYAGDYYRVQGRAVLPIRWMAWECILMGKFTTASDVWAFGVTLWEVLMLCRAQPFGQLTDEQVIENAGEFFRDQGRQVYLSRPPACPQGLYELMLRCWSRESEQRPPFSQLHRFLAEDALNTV", "settings": "DDR1; 1 μM; read-out: % control"}, "panel of 468 kinases [3]": {"biological_target": "T3, panel of 468 kinases (Homo sapiens, UniProt Q08881)", "T3 construct": "purchased KINOMEscan (ScanMAX) service", "T3 sequence (Q08881 1-620)": "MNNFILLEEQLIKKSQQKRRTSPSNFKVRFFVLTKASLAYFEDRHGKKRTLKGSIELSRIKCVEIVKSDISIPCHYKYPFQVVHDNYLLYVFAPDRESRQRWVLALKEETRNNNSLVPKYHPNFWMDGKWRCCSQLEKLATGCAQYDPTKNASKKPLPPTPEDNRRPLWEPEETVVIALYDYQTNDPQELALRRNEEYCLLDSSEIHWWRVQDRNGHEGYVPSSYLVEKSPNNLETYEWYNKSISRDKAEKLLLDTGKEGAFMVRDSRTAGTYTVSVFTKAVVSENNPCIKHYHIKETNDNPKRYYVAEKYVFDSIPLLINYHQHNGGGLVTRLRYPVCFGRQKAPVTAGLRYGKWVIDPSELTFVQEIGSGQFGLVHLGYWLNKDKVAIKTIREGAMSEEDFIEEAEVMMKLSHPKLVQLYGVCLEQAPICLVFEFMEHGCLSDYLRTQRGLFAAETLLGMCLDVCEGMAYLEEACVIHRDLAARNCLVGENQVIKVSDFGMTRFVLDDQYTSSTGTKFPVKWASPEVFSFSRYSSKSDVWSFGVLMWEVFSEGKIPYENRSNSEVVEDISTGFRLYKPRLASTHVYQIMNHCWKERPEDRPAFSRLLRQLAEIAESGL", "settings": "ITK; 1 μM; read-out: % control"}, "panel of 468 kinases [4]": {"biological_target": "T4, panel of 468 kinases (Homo sapiens, UniProt Q9HBY8)", "T4 construct": "purchased KINOMEscan (ScanMAX) service", "T4 sequence (Q9HBY8 1-367)": "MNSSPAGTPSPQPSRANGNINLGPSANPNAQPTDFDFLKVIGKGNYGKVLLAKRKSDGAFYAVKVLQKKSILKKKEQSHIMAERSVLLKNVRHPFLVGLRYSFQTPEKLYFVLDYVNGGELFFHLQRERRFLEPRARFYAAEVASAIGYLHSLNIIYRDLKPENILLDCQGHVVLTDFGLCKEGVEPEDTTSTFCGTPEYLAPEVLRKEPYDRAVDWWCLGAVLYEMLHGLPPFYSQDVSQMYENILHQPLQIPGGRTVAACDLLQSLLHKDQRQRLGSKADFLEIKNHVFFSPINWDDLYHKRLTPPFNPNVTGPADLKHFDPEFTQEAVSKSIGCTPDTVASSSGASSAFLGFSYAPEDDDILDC", "settings": "SGK2; 1 μM; read-out: % control"}, "panel of 468 kinases [5]": {"biological_target": "T5, panel of 468 kinases (Homo sapiens, UniProt Q8NI60)", "T5 construct": "purchased KINOMEscan (ScanMAX) service", "T5 sequence (Q8NI60 163-647)": "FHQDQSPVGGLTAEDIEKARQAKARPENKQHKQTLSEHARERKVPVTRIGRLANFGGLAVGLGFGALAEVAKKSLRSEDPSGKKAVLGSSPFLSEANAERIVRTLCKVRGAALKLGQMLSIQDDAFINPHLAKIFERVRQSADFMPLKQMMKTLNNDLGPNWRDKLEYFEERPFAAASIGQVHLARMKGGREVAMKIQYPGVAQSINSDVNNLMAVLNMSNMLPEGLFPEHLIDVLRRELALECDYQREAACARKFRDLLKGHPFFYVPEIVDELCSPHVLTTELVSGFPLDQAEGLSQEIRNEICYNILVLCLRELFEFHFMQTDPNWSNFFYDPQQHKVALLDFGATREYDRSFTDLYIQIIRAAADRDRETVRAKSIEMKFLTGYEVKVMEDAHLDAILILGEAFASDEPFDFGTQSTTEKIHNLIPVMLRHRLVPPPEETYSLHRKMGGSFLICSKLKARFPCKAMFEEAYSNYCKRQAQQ", "settings": "ADCK3; 1 μM; read-out: % control"}, "panel of 468 kinases [6]": {"biological_target": "T6, panel of 468 kinases (Homo sapiens, UniProt P15735)", "T6 construct": "purchased KINOMEscan (ScanMAX) service", "T6 sequence (P15735 1-406)": "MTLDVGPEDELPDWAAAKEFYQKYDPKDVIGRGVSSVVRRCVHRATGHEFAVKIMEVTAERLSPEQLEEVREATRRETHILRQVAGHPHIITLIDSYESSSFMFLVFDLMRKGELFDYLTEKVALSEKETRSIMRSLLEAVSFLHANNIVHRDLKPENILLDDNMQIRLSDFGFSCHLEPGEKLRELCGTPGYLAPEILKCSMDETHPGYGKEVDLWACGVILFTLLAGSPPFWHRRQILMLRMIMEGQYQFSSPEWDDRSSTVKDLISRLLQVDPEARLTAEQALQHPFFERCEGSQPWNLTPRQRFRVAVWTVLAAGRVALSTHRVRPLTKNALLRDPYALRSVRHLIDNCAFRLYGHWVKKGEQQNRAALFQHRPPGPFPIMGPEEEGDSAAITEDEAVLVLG", "settings": "PHKG2; 1 μM; read-out: % control"}, "panel of 468 kinases [7]": {"biological_target": "T7, panel of 468 kinases (Homo sapiens, UniProt P45984)", "T7 construct": "purchased KINOMEscan (ScanMAX) service", "settings": "JNK2; 1 μM; read-out: % control"}, "panel of 468 kinases [8]": {"biological_target": "T8, panel of 468 kinases (Homo sapiens, UniProt P00519, T315I)", "T8 construct": "purchased KINOMEscan (ScanMAX) service", "settings": "1 μM, read-out: % control"}, "panel of 468 kinases [9]": {"biological_target": "T9, panel of 468 kinases (Homo sapiens, UniProt Q8N5S9)", "T9 construct": "purchased KINOMEscan (ScanMAX) service", "T9 sequence (Q8N5S9 whole entry)": "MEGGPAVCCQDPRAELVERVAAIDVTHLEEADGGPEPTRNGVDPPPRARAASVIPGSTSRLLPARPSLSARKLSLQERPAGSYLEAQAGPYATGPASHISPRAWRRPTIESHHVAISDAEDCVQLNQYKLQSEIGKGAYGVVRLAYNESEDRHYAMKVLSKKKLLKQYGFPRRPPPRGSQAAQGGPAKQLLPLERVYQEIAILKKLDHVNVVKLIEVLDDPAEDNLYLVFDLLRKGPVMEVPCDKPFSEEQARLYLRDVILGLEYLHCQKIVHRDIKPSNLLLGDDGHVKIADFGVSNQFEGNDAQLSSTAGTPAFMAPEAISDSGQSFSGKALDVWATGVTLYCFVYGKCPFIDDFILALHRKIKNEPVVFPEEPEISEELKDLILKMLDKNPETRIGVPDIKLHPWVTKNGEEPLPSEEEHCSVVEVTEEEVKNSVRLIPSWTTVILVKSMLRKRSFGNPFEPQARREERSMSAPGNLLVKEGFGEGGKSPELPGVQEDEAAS", "settings": "CAMKK1; 1 μM; read-out: % control"}, "panel of 468 kinases [10]": {"biological_target": "T10, panel of 468 kinases (Homo sapiens, UniProt P16591)", "T10 construct": "purchased KINOMEscan (ScanMAX) service", "T10 sequence (P16591 whole entry)": "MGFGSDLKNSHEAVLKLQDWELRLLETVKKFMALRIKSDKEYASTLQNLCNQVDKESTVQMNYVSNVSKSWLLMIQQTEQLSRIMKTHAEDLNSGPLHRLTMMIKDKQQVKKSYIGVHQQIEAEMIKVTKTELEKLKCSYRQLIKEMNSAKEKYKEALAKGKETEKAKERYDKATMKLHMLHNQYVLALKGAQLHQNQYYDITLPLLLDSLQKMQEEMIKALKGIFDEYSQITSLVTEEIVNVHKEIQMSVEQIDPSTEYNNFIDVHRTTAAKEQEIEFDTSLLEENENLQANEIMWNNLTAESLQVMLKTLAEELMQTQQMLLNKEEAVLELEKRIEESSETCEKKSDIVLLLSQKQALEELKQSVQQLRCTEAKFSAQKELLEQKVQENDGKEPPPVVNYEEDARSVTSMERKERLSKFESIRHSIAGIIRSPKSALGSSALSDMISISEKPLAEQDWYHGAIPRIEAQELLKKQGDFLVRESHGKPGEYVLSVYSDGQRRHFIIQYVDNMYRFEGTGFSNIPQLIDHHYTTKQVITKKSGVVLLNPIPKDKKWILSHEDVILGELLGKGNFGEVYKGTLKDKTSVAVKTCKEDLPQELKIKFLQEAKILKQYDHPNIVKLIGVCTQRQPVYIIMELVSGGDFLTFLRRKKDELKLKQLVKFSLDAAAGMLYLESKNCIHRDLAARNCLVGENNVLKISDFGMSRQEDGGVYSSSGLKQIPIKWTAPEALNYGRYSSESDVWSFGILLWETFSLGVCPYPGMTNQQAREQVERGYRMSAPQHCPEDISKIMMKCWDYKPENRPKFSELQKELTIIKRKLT", "settings": "FER; 1 μM; read-out: % control"}, "panel of 468 kinases [11]": {"biological_target": "T11, panel of 468 kinases (Homo sapiens, UniProt O00141)", "T11 construct": "purchased KINOMEscan (ScanMAX) service", "T11 sequence (O00141 1-431)": "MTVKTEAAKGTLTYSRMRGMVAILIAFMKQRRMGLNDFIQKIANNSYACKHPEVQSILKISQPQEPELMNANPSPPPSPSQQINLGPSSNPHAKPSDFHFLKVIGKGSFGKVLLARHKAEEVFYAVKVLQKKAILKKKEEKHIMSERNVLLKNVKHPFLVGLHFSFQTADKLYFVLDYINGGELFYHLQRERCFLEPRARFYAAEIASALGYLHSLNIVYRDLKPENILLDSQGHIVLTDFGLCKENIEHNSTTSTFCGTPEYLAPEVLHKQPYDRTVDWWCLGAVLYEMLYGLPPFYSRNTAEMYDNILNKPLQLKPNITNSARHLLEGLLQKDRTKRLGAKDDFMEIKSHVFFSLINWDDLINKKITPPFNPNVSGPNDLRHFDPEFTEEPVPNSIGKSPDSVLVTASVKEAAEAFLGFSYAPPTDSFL", "settings": "SGK; 1 μM; read-out: % control"}}, "note": "Where two headings read alike, the source gives them in different places."}
{"smiles": "CNc1nc(Nc2ccc(S(=O)(=O)N3CCC(N4CCOCC4)CC3)cc2OC)nc2[nH]cc(Cl)c12", "note": "[Compound 12, 5-chloro-N2-(2-methoxy-4-((4-morpholinopiperidin-1-yl)sulfonyl)phenyl)-N4-methyl-7H-pyrrolo[2,3-d]pyrimidine-2,4-diamine]", "values": [{"measurement": "remaining binding at 1 µM", "setting": "panel of 468 kinases [1]", "value": 100, "unit": "%"}, {"measurement": "remaining binding at 1 µM", "setting": "panel of 468 kinases [2]", "value": 100, "unit": "%"}, {"measurement": "remaining binding at 1 µM", "setting": "panel of 468 kinases [3]", "value": 92, "unit": "%"}, {"measurement": "remaining binding at 1 µM", "setting": "panel of 468 kinases [4]", "value": 95, "unit": "%"}, {"measurement": "remaining binding at 1 µM", "setting": "panel of 468 kinases [5]", "value": 100, "unit": "%"}, {"measurement": "remaining binding at 1 µM", "setting": "panel of 468 kinases [6]", "value": 11, "unit": "%"}, {"measurement": "remaining binding at 1 µM", "setting": "panel of 468 kinases [7]", "value": 26, "unit": "%"}, {"measurement": "remaining binding at 1 µM", "setting": "panel of 468 kinases [8]; ABL1(T315I)-nonphosphorylated", "value": 94, "unit": "%"}, {"measurement": "remaining binding at 1 µM", "setting": "panel of 468 kinases [8]; ABL1(T315I)-phosphorylated", "value": 100, "unit": "%"}, {"measurement": "remaining binding at 1 µM", "setting": "panel of 468 kinases [9]", "value": 100, "unit": "%"}, {"measurement": "remaining binding at 1 µM", "setting": "panel of 468 kinases [10]", "value": 44, "unit": "%"}, {"measurement": "remaining binding at 1 µM", "setting": "panel of 468 kinases [11]", "value": 89, "unit": "%"}]}
{"smiles": "CNc1nc(Nc2ccc(C(=O)N3CCC(N4CCOCC4)CC3)c3c2OCO3)nc2[nH]cc(Cl)c12", "note": "[Compound 75, (7-((5-chloro-4-(methylamino)-7H-pyrrolo[2,3-d]pyrimidin-2-yl)amino)benzo[d][1,3]dioxol-4-yl)(4-morpholinopiperidin-1-yl)methanone]", "values": [{"measurement": "remaining binding at 1 µM", "setting": "panel of 468 kinases [1]", "value": 100, "unit": "%"}, {"measurement": "remaining binding at 1 µM", "setting": "panel of 468 kinases [2]", "value": 100, "unit": "%"}, {"measurement": "remaining binding at 1 µM", "setting": "panel of 468 kinases [3]", "value": 100, "unit": "%"}, {"measurement": "remaining binding at 1 µM", "setting": "panel of 468 kinases [4]", "value": 37, "unit": "%"}, {"measurement": "remaining binding at 1 µM", "setting": "panel of 468 kinases [5]", "value": 100, "unit": "%"}, {"measurement": "remaining binding at 1 µM", "setting": "panel of 468 kinases [6]", "value": 5.3, "unit": "%"}, {"measurement": "remaining binding at 1 µM", "setting": "panel of 468 kinases [7]", "value": 0, "unit": "%"}, {"measurement": "remaining binding at 1 µM", "setting": "panel of 468 kinases [8]; ABL1(T315I)-nonphosphorylated", "value": 100, "unit": "%"}, {"measurement": "remaining binding at 1 µM", "setting": "panel of 468 kinases [8]; ABL1(T315I)-phosphorylated", "value": 60, "unit": "%"}, {"measurement": "remaining binding at 1 µM", "setting": "panel of 468 kinases [9]", "value": 95, "unit": "%"}, {"measurement": "remaining binding at 1 µM", "setting": "panel of 468 kinases [10]", "value": 56, "unit": "%"}, {"measurement": "remaining binding at 1 µM", "setting": "panel of 468 kinases [11]", "value": 7.2, "unit": "%"}]}
{"smiles": "CNc1nc(Nc2ccc(P3(=O)CCN(C4CCOCC4)CC3)cc2OC)nc2[nH]cc(Cl)c12", "note": "[Compound 77, 4-(4-((5-chloro-4-(methylamino)-7H-pyrrolo[2,3-d]pyrimidin-2-yl)amino)-3-methoxyphenyl)-1-(tetrahydro-2H-pyran-4-yl)-1,4-azaphosphinane 4-oxide]", "values": [{"measurement": "remaining binding at 1 µM", "setting": "panel of 468 kinases [1]", "value": 100, "unit": "%"}, {"measurement": "remaining binding at 1 µM", "setting": "panel of 468 kinases [2]", "value": 100, "unit": "%"}, {"measurement": "remaining binding at 1 µM", "setting": "panel of 468 kinases [3]", "value": 97, "unit": "%"}, {"measurement": "remaining binding at 1 µM", "setting": "panel of 468 kinases [4]", "value": 87, "unit": "%"}, {"measurement": "remaining binding at 1 µM", "setting": "panel of 468 kinases [5]", "value": 100, "unit": "%"}, {"measurement": "remaining binding at 1 µM", "setting": "panel of 468 kinases [6]", "value": 1.9, "unit": "%"}, {"measurement": "remaining binding at 1 µM", "setting": "panel of 468 kinases [7]", "value": 7.5, "unit": "%"}, {"measurement": "remaining binding at 1 µM", "setting": "panel of 468 kinases [8]; ABL1(T315I)-nonphosphorylated", "value": 99, "unit": "%"}, {"measurement": "remaining binding at 1 µM", "setting": "panel of 468 kinases [8]; ABL1(T315I)-phosphorylated", "value": 77, "unit": "%"}, {"measurement": "remaining binding at 1 µM", "setting": "panel of 468 kinases [9]", "value": 83, "unit": "%"}, {"measurement": "remaining binding at 1 µM", "setting": "panel of 468 kinases [10]", "value": 20, "unit": "%"}, {"measurement": "remaining binding at 1 µM", "setting": "panel of 468 kinases [11]", "value": 68, "unit": "%"}]}
